The values below come from patent US20230373934A1, “ANDROGEN RECEPTOR MODULATORS AND METHODS FOR THEIR USE” (ESSA Pharma, Inc., priority 2022, published 2023).

In general, IC50 refers to the concentration that gives 50% inhibition.

Some results are limits rather than exact numbers.

In this assay the target is T1, androgen receptor (AR) (Homo sapiens, UniProt P10275).
T1 sequence (P10275 1-920 T878A): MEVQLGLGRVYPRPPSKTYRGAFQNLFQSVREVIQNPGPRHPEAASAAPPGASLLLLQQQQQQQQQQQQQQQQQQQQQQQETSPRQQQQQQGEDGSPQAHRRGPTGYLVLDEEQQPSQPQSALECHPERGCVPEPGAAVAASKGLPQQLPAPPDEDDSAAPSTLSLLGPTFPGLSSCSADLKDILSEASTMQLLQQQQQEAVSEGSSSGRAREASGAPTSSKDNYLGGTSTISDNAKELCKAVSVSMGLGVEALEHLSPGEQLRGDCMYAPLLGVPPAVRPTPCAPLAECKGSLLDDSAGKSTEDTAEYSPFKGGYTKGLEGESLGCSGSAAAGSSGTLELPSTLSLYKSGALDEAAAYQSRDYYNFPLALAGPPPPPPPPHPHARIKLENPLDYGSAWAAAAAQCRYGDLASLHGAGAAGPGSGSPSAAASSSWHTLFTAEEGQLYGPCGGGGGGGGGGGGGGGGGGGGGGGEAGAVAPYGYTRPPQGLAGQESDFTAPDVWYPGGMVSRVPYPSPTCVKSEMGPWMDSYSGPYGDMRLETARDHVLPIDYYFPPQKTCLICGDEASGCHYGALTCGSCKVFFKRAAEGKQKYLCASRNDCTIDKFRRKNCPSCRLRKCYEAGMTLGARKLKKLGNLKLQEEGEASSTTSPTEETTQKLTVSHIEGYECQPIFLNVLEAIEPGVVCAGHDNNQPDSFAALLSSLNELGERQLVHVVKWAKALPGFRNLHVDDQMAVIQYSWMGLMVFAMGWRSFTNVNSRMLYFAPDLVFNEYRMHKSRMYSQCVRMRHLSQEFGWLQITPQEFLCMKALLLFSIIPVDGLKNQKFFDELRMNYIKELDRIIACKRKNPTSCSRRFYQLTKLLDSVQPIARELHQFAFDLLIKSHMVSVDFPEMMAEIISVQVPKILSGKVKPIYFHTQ
Description: Androgen-induced PSA-luciferase assay, Luciferase Assay B (cells stably expressing ARR2PB or PSA-firefly luciferase reporter, 384-well). It counts as cell-based. The conditions noted are these: Luciferase Assay B (Compounds A186-A219 and A221-A245); stable luciferase reporter cells, 1 h pretreatment, R1881 24 h, serum-free; read-out: PSA-Luc IC50 Range. On the procedure:
Luciferase Assay B: Cells stably expressing probasin promoter (ARR2PB) or human prostate-specific antigen (PSA)-firefly luciferase reporter were plated in poly-D-lysine-coated 384-well plates. 48 h after plating, cells were pretreated with vehicle or compounds for 1 h before adding R1881 under serum-free and phenol red-free conditions and then further incubated for 24 h. R1881 was added only for LNCaP cells. Firefly luciferase activities were determined by EnVision plate reader (Perkinemer) using the Steady-Glo Luciferase Reporter Assay System (Promega). Values were normalized to protein content. GraphPad Prism graphing software was used to calculate IC50 values. Luciferase Assay B was run for Compounds A186-A219 and A221-A245 in Table 2.
Statistical analyses were performed using GraphPad Prism (Version 6.01 for Windows; La Jolla, CA, USA). Comparisons between treatment and control groups were compared using Two-Way ANOVA with post-hoc Dunnett's and Tukey's tests. Differences were considered statistically significant at P values less than 0.05.
In general terms: A reporter such as luciferase makes a cellular process visible.
Take `CCCOc1c(Cl)cc(Oc2ccc(-c3ccc4nc(NS(C)(=O)=O)cnc4c3)cc2)cc1C#N` [Compound A188]: the IC50 lay within 0.5 to 2 µM.

Consider `CS(=O)(=O)Nc1cnc2cc(-c3ccc(Oc4cc(Cl)c(OCCC(F)(F)F)c(C#N)c4)cc3)ccc2n1` [Compound A189], for which the IC50 lay within 0.5 to 2 µM.

Consider `CS(=O)(=O)Nc1cc2ccc(-c3ccc(Oc4cc(Cl)c(OC5CC5)c(C#N)c4)cc3)cc2nn1` [Compound A192], for which the 50% inhibitory concentration (IC50) was under 0.5 µM.

As for `CS(=O)(=O)Nc1cnc2ccc(-c3ccc(Oc4cc(Cl)c(OC5CC5)c(C#N)c4)cc3)cc2n1` [Compound A193], the IC50 fell in the range of 0.5 to 2 µM.

Regarding `N#Cc1cc(Oc2ccc(-c3ccc4nc(N)cnc4c3)cc2)cc(Cl)c1OC1CC1` [Compound A194], the IC50 is over 2 µM.

As for `CN(c1cnc2cc(-c3ccc(Oc4cc(Cl)c(OC5CC5)c(C#N)c4)cc3)ccc2n1)S(C)(=O)=O` [Compound A195], the IC50 lay in the range of 0.5 to 2 µM.

On to `CS(=O)(=O)Nc1ncc(-c2ccc(Oc3cc(Cl)c(OC4CC4)c(C#N)c3)cc2)cn1` [Compound A196], for which the IC50 is 0.5 to 2 µM.

For the molecule `CC(C)(c1ccc(-c2cnc(NS(C)(=O)=O)nc2)cc1)c1cc(Cl)c(OC2CC2)c(C#N)c1` [Compound A197], the IC50 lay within 0.5 to 2 µM.

Regarding `CNc1cnc2cc(-c3ccc(Oc4cc(Cl)c(OC5CC5)c(C#N)c4)cc3)ccc2n1` [Compound A200], the IC50 was over 2 µM.

`CC(C)(c1ccc(OCc2ccnc(N3CCOCC3)n2)cc1)c1cc(Cl)c(OC2CC2)c(C#N)c1` [Compound A201, 3-chloro-2-cyclopropoxy-5-(2-(4-((2-morpholinopyrimidin-4-yl)methoxy)phenyl)propan-2-yl)benzonitrile]: the half-inhibitory concentration (IC50) lay within 0.5 to 2 µM.

With `N#Cc1cc(Oc2ccc(-c3ccc4nc(N5CCOCC5)cnc4c3)cc2)cc(Cl)c1OC1CC1` [Compound A204], the IC50 was over 2 µM.

On to `N#Cc1cc(Oc2ccc(-c3ccc4nc(N5CCS(=O)(=O)CC5)cnc4c3)cc2)cc(Cl)c1OC1CC1` [Compound A206], for which the IC50 was 0.5 to 2 µM.

In the case of `CS(=O)(=O)NCc1cnc2cc(-c3ccc(Oc4cc(Cl)c(OC5CC5)c(C#N)c4)cc3)ccc2n1` [Compound A207, N-((6-(4-(3-chloro-5-cyano-4-cyclopropoxyphenoxy)phenyl)quinoxalin-2-yl)methyl)methanesulfonamide], the 50% inhibitory concentration (IC50) lay within 0.5 to 2 µM.

As to `Cn1nc(NS(C)(=O)=O)c2ccc(-c3ccc(Oc4cc(Cl)c(OC5CC5)c(C#N)c4)cc3)cc21` [Compound A209], the IC50 was over 2 µM.

Take `Cn1nc(NS(C)(=O)=O)c2cc(-c3ccc(Oc4cc(Cl)c(OC5CC5)c(C#N)c4)cc3)ccc21` [Compound A210]: the IC50 is 0.5 to 2 µM.

Regarding `CS(=O)(=O)Nc1cc(=O)n2cc(-c3ccc(Oc4cc(Cl)c(OC5CC5)c(C#N)c4)cc3)ccc2n1` [Compound A211], the IC50 is over 2 µM.

As for `CS(=O)(=O)NCc1ccc(-c2ccc(Oc3cc(Cl)c(OC4CC4)c(C#N)c3)cc2)cn1` [Compound A212], the IC50 is 0.5 to 2 µM.

With `CS(=O)(=O)NCc1cnc(-c2ccc(Oc3cc(Cl)c(OC4CC4)c(C#N)c3)cc2)cn1` [Compound A213], the IC50 was in the range of 0.5 to 2 µM.

On to `CS(=O)(=O)NCc1ccc(-c2ccc(Oc3cc(Cl)c(OC4CC4)c(C#N)c3)cc2)nn1` [Compound A214], for which the IC50 was in the range of 0.5 to 2 µM.

Regarding `N#Cc1cc(Oc2ccc(-c3ccc4nc(NC5CCS(=O)(=O)CC5)cnc4c3)cc2)cc(Cl)c1OC1CC1` [Compound A215], the IC50 is 0.5 to 2 µM.

As to `N#Cc1cc(Oc2ccc(-c3ccc4nc(NC5CS(=O)(=O)C5)cnc4c3)cc2)cc(Cl)c1OC1CC1` [Compound A216], the IC50 is over 2 µM.

With `CS(=O)(=O)Nc1cnc2cc(-c3ccc(Oc4cnc(OC5CC5)c(C#N)c4)cc3)ccc2n1` [Compound A217], the IC50 is over 2 µM.

Regarding `CS(=O)(=O)Nc1cnc2cc(-c3ccc(Oc4cnc(OC5CC5)c(Cl)c4)cc3)ccc2n1` [Compound A218], the IC50 was 0.5 to 2 µM.

As for `CS(=O)(=O)Nc1ccc2nc(-c3ccc(Oc4cc(Cl)c(OC5CC5)c(C#N)c4)cc3)cnc2n1` [Compound A219], the IC50 is 0.5 to 2 µM.

With `CS(=O)(=O)NCc1nccc(COc2ccc(N(CC(F)(F)F)c3cc(Cl)c(OC4CC4)c(C#N)c3)cc2)n1` [Compound A221], the IC50 is under 0.5 µM.

On to `CS(=O)(=O)Nc1cnc2cc(-c3ccc(N(CC(F)F)c4cc(Cl)c(OC5CC5)c(C#N)c4)cc3)ccc2n1` [Compound A222], for which the IC50 was under 0.5 µM.

In the case of `CS(=O)(=O)Nc1nccc(COc2ccc(N(CC(F)(F)F)c3cc(Cl)c(N4CCOCC4)c(C#N)c3)cc2)n1` [Compound A223], the half-maximal inhibitory concentration (IC50) is under 0.5 µM.

With `CS(=O)(=O)Nc1cnc2cc(-c3ccc(N(CC(F)(F)F)c4cc(Cl)c(N5CCOCC5)c(C#N)c4)cc3)ccc2n1` [Compound A224, N-(6-(4-((3-chloro-5-cyano-4-morpholinophenyl)(2,2,2-trifluoroethyl)amino)phenyl)quinoxalin-2-yl)methanesulfonamide], the IC50 was under 0.5 µM.

In the case of `CS(=O)(=O)Nc1cc2cnn(Cc3ccc(Oc4cc(Cl)c(OC5CC5)c(C#N)c4)cc3)c2cn1` [Compound A225], the IC50 fell in the range of 0.5 to 2 µM.

For `CS(=O)(=O)Nc1cnc2cc(-c3ccc(Nc4cc(Cl)c(OC5CC5)c(C#N)c4)cc3)ccc2n1` [Compound A226], the IC50 was in the range of 0.5 to 2 µM.

Regarding `CS(=O)(=O)Nc1cc2cn(Cc3ccc(Oc4cc(Cl)c(OC5CC5)c(C#N)c4)cc3)nc2cn1` [Compound A227], the IC50 is 0.5 to 2 µM.

With `CS(=O)(=O)NC12CC(COc3ccc(Oc4cc(Cl)c(OC5CC5)c(C#N)c4)cc3)(C1)C2` [Compound A228, N-(3-((4-(3-chloro-5-cyano-4-cyclopropoxyphenoxy)phenoxy)methyl)bicyclo[1.1.1]pentan-1-yl)methanesulfonamide], the IC50 was over 2 µM.

As for `CS(=O)(=O)Nc1cncc(N2CCN(c3ccc(Oc4cc(Cl)c(OC5CC5)c(C#N)c4)cc3)CC2)n1` [Compound A229], the IC50 is over 2 µM.

`CS(=O)(=O)Nc1nccc(N2CCN(c3ccc(Oc4cc(Cl)c(OC5CC5)c(C#N)c4)cc3)CC2)n1` [Compound A230]: the IC50 was under 0.5 µM.

On to `CS(=O)(=O)Nc1cc2n(n1)CCN(c1ccc(Oc3cc(Cl)c(OC4CC4)c(C#N)c3)cc1)C2` [Compound A231], for which the IC50 was over 2 µM.

Turning to `CS(=O)(=O)Nc1cncc(N2CC(c3ccc(Oc4cc(Cl)c(OC5CC5)c(C#N)c4)cc3)C2)n1` [Compound A232], the 50% inhibitory concentration (IC50) is 0.5 to 2 µM.

In the case of `CS(=O)(=O)Nc1cnc2cc(-c3ccc(N(CC(F)(F)F)c4cnc(N5CCOCC5)c(C#N)c4)cc3)ccc2n1` [Compound A233], the IC50 was in the range of 0.5 to 2 µM.

Turning to `CS(=O)(=O)NC12CC(COc3ccc(N(CC(F)(F)F)c4cnc(OC5CC5)c(C#N)c4)cc3)(C1)C2` [Compound A234], the IC50 was 0.5 to 2 µM.

Take `CS(=O)(=O)NC12CC(COc3ccc(N(CC(F)(F)F)c4cnc(NC5CC5)c(C#N)c4)cc3)(C1)C2` [Compound A235]: the IC50 was over 2 µM.

Take `CS(=O)(=O)NC12CC(COc3ccc(N(CC(F)(F)F)c4cc(Cl)c(OC5CC5)c(C#N)c4)cc3)(C1)C2` [Compound A236, N-(3-((4-((3-chloro-5-cyano-4-cyclopropoxyphenyl)(2,2,2-trifluoroethyl)amino)phenoxy)methyl)bicyclo[1.1.1]pentan-1-yl)methanesulfonamide]: the IC50 was under 0.5 µM.

Take `CN(c1ccc(OCc2ccnc(NS(C)(=O)=O)n2)cc1)c1cc(Cl)c(OC2CC2)c(C#N)c1` [Compound A237]: the IC50 was in the range of 0.5 to 2 µM.

Consider `CS(=O)(=O)Nc1nccc(COc2ccc(N(CC(F)(F)F)c3cc(Cl)c(OCCCl)c(C#N)c3)cc2)n1` [Compound A238], for which the IC50 is under 0.5 µM.

Consider `CN(c1cnc2cc(-c3ccc(N(CC(F)(F)F)c4cnc(OC5CC5)c(C#N)c4)cc3)ccc2n1)S(C)(=O)=O` [Compound A239], for which the IC50 is under 0.5 µM.

Consider `N#Cc1cc(Oc2ccc(-c3ccc4nc(N5CCNCC5)cnc4c3)cc2)cc(Cl)c1OC1CC1` [Compound A240], for which the half-maximal inhibitory concentration (IC50) was over 2 µM.

As to `N#Cc1cc(Oc2ccc(-c3ccc4nc(N5CCNCC5)ncc4c3)cc2)cc(Cl)c1OC1CC1` [Compound A241], the IC50 was over 2 µM.
